The values that follow come from PMC9415646, “Improving Aqueous Solubility and In Vitro Pharmacokinetic Properties of the 3-Nitroimidazo[1,2-a]pyridine Antileishmanial Pharmacophore” (Pharmaceuticals, 2022).

One may read the EC50 as the concentration giving half of the maximal effect. As a reminder, the CC50 is the concentration at which the toxic effect on the cells reaches its halfway point. Read a low CC50 as harm at low concentration. In general, melting point refers to the temperature, or range, at which the solid turns liquid.

The test system of series [1] is L. donovani promastigotes. The series is described as follows: Antileishmanial activity against L. donovani promastigotes (MTT assay). It counts as cell-based. The note with it: Leishmania donovani, 72 h, read-out: EC50 L. donovani Pro. On the procedure:
The Leishmania species used in this study were L. donovani (MHOM/IN/00/DEVI) purchased from CNR Leishmania (Montpellier, France). Leishmania promastigote forms were grown in Schneider’s Drosophila medium (Life Technologies, Saint-Aubin, France) supplemented with 100 U/mL penicillin, 100 µg/mL streptomycin, 2 mM L-glutamine and 20% FCS (Life Technologies, Saint-Aubin, France) at 27 °C. The in vitro evaluation of the tested compound’s antileishmanial activity on promastigote forms was carried out by MTT assay according to the Mosmann protocol with some modifications. Briefly, promastigotes in log-phase were incubated at an average density of 10^6 parasites/mL in sterile 96-well plates with various concentrations of compound dissolved in DMSO (final concentration less than 0.5% v/v), in duplicate. Appropriate controls treated with DMSO, Miltefosine, Amphotericin B, Fexinidazole, and Fexinidazole sulfone (reference drugs purchased from Sigma-Aldrich, Saint-Louis, Missouri, USA) were added to each set of experiments. After a 72 h incubation period at 27 °C, parasitic metabolic activity was determined. Each plate-well was then microscope-analyzed to detect any precipitate formation. 20 µL of MTT (3-(4,5-dimethylthiazol-2-yl)-2,5-diphenyltetrazolium bromide) (Sigma-Aldrich, Saint-Louis, Missouri, USA) solution (5 mg/mL in PBS) were added to each well and incubated for 4 h at 27 °C. The enzyme reaction was then stopped by addition of 100 µL of 50% isopropanol–10% sodium dodecyl sulfate. Plates were shaken vigorously at 300 rpm for 10 min. The absorbance was measured at 570 nm in a BIO-TEK Elx808 (Biotek, Colmar, France) absorbance microplate reader. […] EC50 values were calculated by non-linear regression analysis processed dose-response curves, using TableCurve 2D V5.0 software (Systat Software Inc. (Palo Alto, CA, USA)). EC50 values represent the mean value calculated from at least three separate experiments.
(In general: Tetrazolium assays rely on reduction of a dye to a coloured formazan, in cell work by metabolically active cells.)

Series [2] has as its system L. infantum promastigotes. The series is described as follows: Antileishmanial activity against L. infantum promastigotes (luciferase assay). It counts as cell-based. As to conditions: Leishmania infantum, 72 h, read-out: EC50 L. infantum Pro. On the procedure: L. infantum promastigotes (MHOM/MA/67/ITMAP-263, CNR Leishmania, Montpellier, France, expressing luciferase activity) were used in the following tests. The effects of the tested compounds on the growth of L. infantum promastigotes were assessed by Luciferase Assay. Briefly, promastigotes in log-phase in RPMI 1640 medium supplemented with 10% fetal calf serum (FCS), 2 mM L-glutamine and antibiotics (100U/mL penicillin, 100 µg/mL streptomycin and 50µg/mL geneticin), were incubated at an average density of 10^6 parasites/mL (100 µL/well) in sterile 96-well plates with various concentrations of compounds dissolved in DMSO (final concentration less than 0.5% v/v), in duplicate. Appropriate controls (100 µL/well) treated by DMSO and reference drugs (purchased for the majority from Sigma Aldrich) were added to each set of experiments. After a 72 h incubation period at 24 °C, each plate-well was then microscope-examined for detecting possible precipitate formation. To estimate the luciferase activities of promastigotes, 80 µL of each well are transferred in white 96-well plates, Steady Glow reagent (Promega) was added according to manufacter’s instructions, and plates were incubated for 2 min. The luminescence was measured in a FLUOstar Omega (BMG Labtech, Champigny-sur-Marne, France). […] EC50 were calculated by non-linear regression analysis processed on dose–response curves, using TableCurve 2D V5 software.

For series [3], the system named is L. infantum axenic amastigotes. The series is described as follows: Antileishmanial activity on L. infantum axenic amastigotes (luciferase assay). It counts as cell-based. As to conditions: Leishmania infantum, 48 h, read-out: EC50 L. infantum Axenic Ama. On the procedure:
L. infantum promastigotes were harvested in logarithmic phase of growth by centrifugation at 900× g for 10 min. The supernatant was removed carefully and was replaced by the same volume of RPMI 1640 complete medium at pH 5.4 and incubated for 24 h at 24 °C. The acidified promastigotes were then incubated for 24 h at 37 °C in a ventilated flask to transform them into axenic amastigotes. The amastigote stage was checked both by electron microscopy (short flagellum with small bulbous tip extending beyond a spherical cell body) and RT-PCR to confirm the overexpression of ATG8 and amastin genes in amastigotes, relative to promastigotes. The effects of the tested compounds on the growth of L. infantum axenic amastigotes were assessed as follows. L. infantum amastigotes were incubated at a density of 2 × 10^6 parasites/mL in sterile 96-well plates with various concentrations of compounds dissolved in DMSO (final concentration less than 0.5% v/v), in duplicate. Appropriate controls treated with DMSO, amphotericin B, miltefosine, fexinidazole and fexinidazole sulfone were added to each set of experiments. After a 48 h incubation period at 37 °C, each plate-well was then microscopically examined to detect any precipitate formation.
(§1) • Luciferase activity and determination of EC50 were performed as above.

Series [4] relates to L. infantum intracellular amastigotes. The series is described as follows: Antileishmanial activity on L. infantum intracellular (intra-THP1 macrophage) amastigotes. It counts as cell-based. As to conditions: Leishmania infantum, THP-1; intramacrophage (THP1) amastigotes, 120 h; read-out: EC50 L. infantum Intra. Ama. As for the experimental part: The undifferentiated THP1 human monocyte cells (acute monocytic leukemia cell line purchased from ATCC, ref TIB-202) were grown in RPMI 1640 medium (Life Technologies, Saint-Aubin, France) supplemented with 10% FCS (Life Technologies, Saint-Aubin, France), 100 U/mL penicillin, 100 µg/mL streptomycin and 2 mM L-glutamine at 37 °C, 5% CO2. The culture was maintained between 3.10^5 and 1.10^6 cells/mL. The in vitro evaluation of the antileishmanial activity on intracellular amastigote forms of the tested compound was assessed as below.
Briefly, 200 μL of THP-1 cells with Phorbol 12-Myristate 13-Acetate (final concentration 50 ng/mL) were seeded in 96-well plates at an average density of 0.77 × 10^5 cells/mL and incubated for 96 h at 37 °C, 5% CO2. Promastigotes were centrifuged at 3000 rpm for 10 min and the supernatant replaced by the same volume of complete RPMI pH 5.4 and incubated for 24 h at 27 °C. Differentiated THP-1 cells were then infected by acidified promastigotes with an infection ratio of twenty parasites for one macrophage and incubated for 24 h at 37 °C, 5% CO2.
as §1

Series [5] can be described thus: Cytotoxicity on THP-1 cell line (MTT). It counts as cell-based. As to conditions: human, THP-1 cells, THP1 cell line. As for the experimental part: The plates were incubated for 72 h at 37 °C. Each well plate was then microscope-examined for detecting possible precipitate formation before the medium was aspirated from the wells. 100 µL of MTT solution (0.5 mg/mL in medium) were then added to each well. Cells were incubated for 2 h at 37 °C. […] Plates were shaken vigorously (300 rpm) for 10 min. The absorbance was measured at 570 nm using a BIO-TEK ELx808 Absorbance Microplate Reader. DMSO was used as blank and doxorubicin (purchased from Sigma Aldrich) as positive control. Cell viability was calculated as percentage of control (cells incubated with DMSO). […] (Palo Alto, CA, USA). CC50 values represent the mean value calculated from three separate experiments.

The nature of series [6]: Cytotoxicity evaluation on HepG2 cell line (MTT). The note with it: human, HepG2 cells. It counts as cell-based. As for the experimental part:
The tested molecules’ cytotoxicity was assessed according to the method of Mosmann with slight modifications. […] Triplicate assays were performed for each sample. Each plate-well was then microscope-examined to detect possible precipitate formation before the medium was aspirated from the wells. 100 µL of MTT (3-(4,5-dimethyl-2-thiazolyl)-2,5-diphenyl-2H-tetrazolium bromide) solution (0.5 mg/mL in medium without FCS) were then added to each well. […] Plates were shaken vigorously (700 rpm) for 10 min. The absorbance was measured at 570 nm with 630 nm as reference wavelength using a BIO-TEK ELx808 Absorbance Microplate Reader. DMSO was used as blank and doxorubicin (purchased from Sigma Aldrich) as positive control. Cell viability was calculated as percentage of control (cells incubated without compound). […] (Palo Alto, CA, USA)). CC50 values represent the mean value calculated from three separate experiments.

Series [7] deals with T. b. brucei BSF trypomastigotes. The series is described as follows: Antitrypanosomal evaluation on T. b. brucei BSF trypomastigotes (Alamar Blue). It counts as cell-based. The note with it: Trypanosoma brucei, trypomastigote blood stream form. On the procedure:
The effects of the tested compounds on the growth of T. b. brucei were assessed by Alamar Blue® assay described by Räz et al. T. b. brucei AnTat 1.9 (IMTA, Antwerpen, Belgium) was cultured in MEM with Earle’s salts, supplemented according to the protocol of Baltz et al. with the following modifications: 0.5 mM mercaptoethanol (Sigma Aldrich®, France), 1.5 mM L-cysteine (Sigma Aldrich®), 0.05 mM bathocuproïne sulfate (Sigma Aldrich®) and 20% heat-inactivated horse serum (Gibco®, France), at 37 °C and 5% CO2. They were incubated at an average density of 2000 parasites/100 µL in sterile 96-wells plates (Fisher®, France) with various concentrations of compounds dissolved in DMSO, in duplicate. Appropriate controls suramin, treated with sterile water, and fexinidazole, treated with DMSO on sterile water (reference drugs purchased from Sigma Aldrich, France and Fluorochem, UK) were added to each set of experiments. After a 69 h incubation period at 37 °C, 10 µL of the viability marker Alamar Blue® (Fisher, France) were then added to each well, and the plates were incubated for 5 h. The plates were read in a ENSPIRE microplate reader (PerkinElmer, Waltham, MA, USA) using an excitation wavelength of 530 nm and an emission wavelength of 590 nm. […] EC50 were calculated by nonlinear regression analysis processed on dose-response curves, using GraphPad Prism software (USA). EC50 values were calculated from three separate experiments.
A general note: Resazurin is reduced to fluorescent resorufin, in cell work by metabolically active cells.

Molecules are shown by their SMILES. Read-outs that look alike come from different tables or passages of the source. Bounds are passed on as bounds.

Regarding `Cn1c([N+](=O)[O-])cnc1COc1ccc(S(C)(=O)=O)cc1` [Fexinidazole sulfone, reference compound], the EC50 in series [1] (promastigotes, MTT) amounted to 1.2 ± 0.2 µM; in series [2], 1.1 ± 0.1 µM; in series [3], 4.3 ± 0.1 µM; in series [4] it was 17.8 ± 1.4 µM. The molecule also had a CC50 at 72 h in series [5] of over 100 µM.

For the molecule `O=[N+]([O-])c1c(CS(=O)(=O)c2ccc(O)cc2)nc2c(Br)cc(Cl)cn12` [Compound 2c, 4-{[(8-Bromo-6-Chloro-3-Nitroimidazo[1,2-a]pyridin-2-yl)methyl]sulfonyl}phenol], the melting point worked out at 242 °C. In addition, in series [1] (promastigotes, MTT), the EC50 is over 3.1 µM. Moreover, the EC50 in series [2] is over 100 µM. Further, the EC50 in series [3] was over 5 µM. Besides, the CC50 at 72 h in series [6] is over 3.9 µM. In series [5], this molecule showed a CC50 at 72 h of over 100 µM. In series [7], this molecule showed an EC50 of 0.4 ± 0.03 µM.

With `CCCCCCCCCCCCCCCCOP(=O)([O-])OCC[N+](C)(C)C` [Miltefosine, reference compound], the EC50 in series [2] worked out at 18.2 ± 0.5 µM; in series [3], 0.3 ± 0.02 µM; in series [4], 0.4 ± 0.14 µM. The molecule also showed a CC50 at 72 h in series [5] of 28.1 ± 3.4 µM.

As for `C[C@@H]1[C@H](O)[C@@H](C)/C=C/C=C/C=C/C=C/C=C/C=C/C=C/[C@H](O[C@@H]2O[C@H](C)[C@@H](O)[C@H](N)[C@@H]2O)C[C@@H]2O[C@](O)(C[C@@H](O)C[C@@H](O)[C@H](O)CC[C@@H](O)C[C@@H](O)CC(=O)O[C@H]1C)C[C@H](O)[C@H]2C(=O)O` [Amphotericin B, reference compound], the EC50 in series [1] is 0.07 ± 0.01 µM; in series [2], 0.04 ± 0.01 µM; in series [3], 0.08 ± 0.02 µM; in series [4] it was 0.06 ± 0.01 µM. Besides, in series [5], it took 12.1 ± 1.3 µM to reach half-maximal cytotoxicity (CC50 at 72 h).

In turn, `O=[N+]([O-])c1c(CS(=O)(=O)CCC(F)(F)F)nc2c([S+]([O-])c3ccc(Cl)cc3)cc(Cl)cn12` (stereo not drawn) [Compound 6a, 6-Chloro-8-[(4-Chlorophenyl)sulfinyl]-3-Nitro-2-[(3,3,3-Trifluoropropylsulfonyl)methyl] imidazo[1,2-a]pyridine] displayed a melting point of 221 °C. Besides, the EC50 in series [1] (promastigotes, MTT) stood at 1.9 ± 0.3 µM. In series [2], the EC50 amounted to 7.4 ± 0.4 µM. In addition, the EC50 in series [3] was found to be 5 ± 0.1 µM. Further, the EC50 in series [4] came to 3.3 ± 0.2 µM. The molecule further had a CC50 at 72 h in series [6] of over 5 µM. For the same molecule, in series [5], the CC50 at 72 h is over 100 µM.

In the case of `Cc1ccc(C(=O)Nc2ccc(S(=O)(=O)O)c3cc(S(=O)(=O)O)cc(S(=O)(=O)O)c23)cc1NC(=O)c1cccc(NC(=O)Nc2cccc(C(=O)Nc3cc(C(=O)Nc4ccc(S(=O)(=O)O)c5cc(S(=O)(=O)O)cc(S(=O)(=O)O)c45)ccc3C)c2)c1` [Suramin, reference compound], the CC50 at 72 h in series [6] is over 100 µM. Moreover, the EC50 in series [7] came out at 0.08 ± 0.04 µM.
